We go through five substances from patent publication US9833497B2, “Human originated EGF domain proteins and use of the same” (CHENGDU SOURCEBIO LIMITED-LIABILITY COMPANY, priority 2013, dated 2017).

The term MIC denotes the lowest concentration that inhibits growth of the organism. Higher therefore signals a less susceptible organism.

Holding throughout (assay type): cell-based
One experiment has as its system E. coli DH5α. The experiment is described as follows: Antibacterial activity: MIC and growth curve against E. coli DH5α in 96-well plate. The note with it: minimal inhibitory concentration against E. coli DH5α; 96-well plate, 5×10^5 CFU/mL, 37° C., judged after 8 h. An outline of the steps:
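MIC taken as lowest protein level with no bacterial growth, tracked by A600 every 30 min during 37 °C, 175 rpm culture. Two-fold protein series 50-12.5 μg/mL final, triplicate wells, against 5×10^5 CFU/mL of LB-washed mid-log cells.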

The next experiment concerns E. coli BL21. Briefly: MIC against Gram-negative bacteria: E. coli BL21. The note with it: 5×10^5 CFU/mL. An outline of the steps:
(§1)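 The recombinant human-originated EGF domain proteins were serially diluted two-fold against bacteria at 5×10^5 CFU/mL in LB medium. After shaken incubation at 37° C, the lowest concentration with no bacterial growth was recorded as the MIC.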

Another experiment has as its system Pseudomonas aeruginosa. The experiment is described as follows: MIC against Gram-negative bacteria: Pseudomonas aeruginosa. The note with it: 5×10^5 CFU/mL. An outline of the steps:
as §1

The next experiment has as its system Klebsiella pneumonia. Briefly: MIC against Gram-negative bacteria: Klebsiella pneumonia. The note with it: 5×10^5 CFU/mL. A digest of the protocol: as §1
A further experiment concerns Enterobacter cloacae. Briefly: MIC against Gram-negative bacteria: Enterobacter cloacae. The note with it: 5×10^5 CFU/mL. An outline of the steps:
as §1

A further experiment relates to Aeromonas hydrophila. Briefly: MIC against Gram-negative bacteria: Aeromonas hydrophila. The note with it: 5×10^5 CFU/mL. A digest of the protocol:
as §1

The next experiment has as its system Citrobacter diversus. The experiment is described as follows: MIC against Gram-negative bacteria: Citrobacter diversus. The note with it: 5×10^5 CFU/mL. An outline of the steps:
as §1

Another experiment relates to Moraxella catarrhalis. Briefly: MIC against Gram-negative bacteria: Moraxella catarrhalis. The note with it: 5×10^5 CFU/mL. A digest of the protocol:
as §1

The subject of a further experiment is Proteus mirabilis. The experiment is described as follows: MIC against Gram-negative bacteria: Proteus mirabilis. The note with it: 5×10^5 CFU/mL. A digest of the protocol: as §1
For a further experiment, the system named is Proteus vulgaris. Briefly: MIC against Gram-negative bacteria: Proteus vulgaris. The note with it: 5×10^5 CFU/mL. A digest of the protocol: as §1
The next experiment concerns Serratia marcescens. The experiment is described as follows: MIC against Gram-negative bacteria: Serratia marcescens. The note with it: 5×10^5 CFU/mL. An outline of the steps: as §1
[1] abbreviates: E. coli BL21, 10 h cultivation at 37° C.

In turn, “PRT1217 (EITACFPNPCRNGGSCDPIGNTFICNCKAGLTGVTCE; listed as Homo sapiens)” showed a minimum inhibitory concentration (MIC) against E. coli DH5α of 50 µg/mL. Further, the “MIC against E. coli BL21” value against E. coli BL21 (E. coli BL21, 96-well plate, 37° C., 10 h) amounted to 12.5 µg/mL. For the same substance, the “MIC against P. aeruginosa” value in the experiment on Pseudomonas aeruginosa (Pseudomonas aeruginosa, 96-well plate, 37° C., 10 h) turned out to be 50 µg/mL. In the experiment on Klebsiella pneumonia (Klebsiella pneumonia, 96-well plate, 37° C., 10 h), the “MIC against K. pneumonia” value was 12.5 µg/mL. Also, the “MIC against E. cloacae” value with Enterobacter cloacae (Enterobacter cloacae, 96-well plate, 37° C., 10 h) is 25 µg/mL. Besides, the “MIC against A. hydrophila” value in the experiment with Aeromonas hydrophila (Aeromonas hydrophila, 96-well plate, 37° C., 10 h) is 50 µg/mL. The “MIC against C. diversus” value against Citrobacter diversus (Citrobacter diversus, 96-well plate, 37° C., 10 h) turned out to be 25 µg/mL. Also, in the experiment on Moraxella catarrhalis (Moraxella catarrhalis, 96-well plate, 37° C., 10 h), the “MIC against M. catarrhalis” value turned out to be 12.5 µg/mL. For the same substance, in the experiment with Proteus mirabilis (Proteus mirabilis, 96-well plate, 37° C., 10 h), the “MIC against P. mirabilis” value was 50 µg/mL. For the same substance, in the experiment with Proteus vulgaris (Proteus vulgaris, 96-well plate, 37° C., 10 h), the “MIC against P. vulgaris” value was found to be 25 µg/mL. For the same substance, the “MIC against S. marcescens” value against Serratia marcescens (Serratia marcescens, 96-well plate, 37° C., 10 h) is 12.5 µg/mL.
In turn, “PRT1423 (PVDPCFRANCEYQCQPLNQTSYLCVCAEGFAPIPHEPHRCQ; listed as Homo sapiens)” registered an MIC with E. coli DH5α of 50 µg/mL. Further, the “MIC against E. coli BL21” value in the experiment with E. coli BL21 (setting [1]) was 12.5 µg/mL. Further, in the experiment on Pseudomonas aeruginosa (Pseudomonas aeruginosa, 10 h cultivation at 37° C.), the “MIC against P. aeruginosa” value came to 12.5 µg/mL. For the same substance, in the experiment with Klebsiella pneumonia (Klebsiella pneumonia, 10 h cultivation at 37° C.), the “MIC against K. pneumonia” value came out at 12.5 µg/mL. In the experiment on Enterobacter cloacae (Enterobacter cloacae, 10 h cultivation at 37° C.), the “MIC against E. cloacae” value was 12.5 µg/mL. In addition, the “MIC against A. hydrophila” value in the experiment with Aeromonas hydrophila (Aeromonas hydrophila, 10 h cultivation at 37° C.) amounted to 12.5 µg/mL. Further, the “MIC against C. diversus” value against Citrobacter diversus (Citrobacter diversus, 10 h cultivation at 37° C.) is 25 µg/mL. In the experiment on Moraxella catarrhalis (Moraxella catarrhalis, 10 h cultivation at 37° C.), the “MIC against M. catarrhalis” value amounted to 50 µg/mL. For the same substance, in the experiment on Proteus mirabilis (Proteus mirabilis, 10 h cultivation at 37° C.), the “MIC against P. mirabilis” value amounted to 12.5 µg/mL. The “MIC against P. vulgaris” value in the experiment on Proteus vulgaris (Proteus vulgaris, 10 h cultivation at 37° C.) is 50 µg/mL. The “MIC against S. marcescens” value in the experiment with Serratia marcescens (Serratia marcescens, 10 h cultivation at 37° C.) amounted to 12.5 µg/mL.
Consider “PRT533 (GTINSNLGYCQCKLHVEGPTCSRCKLLYWNLDKENPSGCSE; listed as Homo sapiens)”, for which the MIC in the experiment on E. coli DH5α was 50 µg/mL. Besides, the “MIC against E. coli BL21” value with E. coli BL21 (96-well plate, 37° C., 10 h) came out at 25 µg/mL. In addition, the “MIC against P. aeruginosa” value against Pseudomonas aeruginosa (96-well plate, 37° C., 10 h) came to 100 µg/mL. The “MIC against K. pneumonia” value against Klebsiella pneumonia (96-well plate, 37° C., 10 h) is 25 µg/mL. Further, the “MIC against E. cloacae” value against Enterobacter cloacae (96-well plate, 37° C., 10 h) came to 50 µg/mL. The “MIC against A. hydrophila” value in the experiment with Aeromonas hydrophila (96-well plate, 37° C., 10 h) amounted to 25 µg/mL. Further, the “MIC against C. diversus” value against Citrobacter diversus (96-well plate, 37° C., 10 h) came to 12.5 µg/mL. Also, in the experiment on Moraxella catarrhalis (96-well plate, 37° C., 10 h), the “MIC against M. catarrhalis” value was determined as 25 µg/mL. Further, the “MIC against P. mirabilis” value against Proteus mirabilis (96-well plate, 37° C., 10 h) amounted to 50 µg/mL. Also, in the experiment on Proteus vulgaris (96-well plate, 37° C., 10 h), the “MIC against P. vulgaris” value is 25 µg/mL. Also, the “MIC against S. marcescens” value with Serratia marcescens (96-well plate, 37° C., 10 h) is 12.5 µg/mL.
In the case of “PRT457 (DVDECLQGRCEQVCVNSPGSYTCHCDGRGGLKLSQDMDTCE; listed as Homo sapiens)”, the minimum inhibitory concentration (MIC) against E. coli DH5α turned out to be 50 µg/mL. The “MIC against E. coli BL21” value against E. coli BL21 (96-well plate, 37° C., 10 h) came out at 25 µg/mL. For the same substance, the “MIC against P. aeruginosa” value against Pseudomonas aeruginosa (96-well plate, 37° C., 10 h) was 12.5 µg/mL. In addition, in the experiment on Klebsiella pneumonia (96-well plate, 37° C., 10 h), the “MIC against K. pneumonia” value was found to be 50 µg/mL. For the same substance, the “MIC against E. cloacae” value with Enterobacter cloacae (96-well plate, 37° C., 10 h) amounted to 25 µg/mL. In addition, the “MIC against A. hydrophila” value against Aeromonas hydrophila (96-well plate, 37° C., 10 h) was 12.5 µg/mL. For the same substance, the “MIC against C. diversus” value against Citrobacter diversus (96-well plate, 37° C., 10 h) came out at 25 µg/mL. In addition, the “MIC against M. catarrhalis” value in the experiment on Moraxella catarrhalis (96-well plate, 37° C., 10 h) stood at 50 µg/mL. Further, the “MIC against P. mirabilis” value with Proteus mirabilis (96-well plate, 37° C., 10 h) was found to be 12.5 µg/mL. Further, the “MIC against P. vulgaris” value in the experiment on Proteus vulgaris (96-well plate, 37° C., 10 h) turned out to be 50 µg/mL. Besides, the “MIC against S. marcescens” value in the experiment with Serratia marcescens (96-well plate, 37° C., 10 h) amounted to 12.5 µg/mL.
With “PRT174 (CASSPCANGGTCRDGVNDFSCTCPPGYTGRNC; listed as Homo sapiens)”, in the experiment with E. coli DH5α, the MIC came to 50 µg/mL. Also, in the experiment on E. coli BL21 (setting [1]), the “MIC (μg/mL) E. coli BL21” value was 12.5 µg/mL. In the experiment on Pseudomonas aeruginosa (P. aeruginosa, 10 h cultivation at 37° C.), the “MIC (μg/mL) P. aeruginosa” value is 25 µg/mL. Besides, the “MIC (μg/mL) K. pneumonia” value against Klebsiella pneumonia (K. pneumonia, 10 h cultivation at 37° C.) was 50 µg/mL. Moreover, the “MIC (μg/mL) E. cloacae” value in the experiment with Enterobacter cloacae (E. cloacae, 10 h cultivation at 37° C.) turned out to be 25 µg/mL. Besides, the “MIC (μg/mL) A. hydrophila” value in the experiment on Aeromonas hydrophila (A. hydrophila, 10 h cultivation at 37° C.) amounted to 12.5 µg/mL. In the experiment with Citrobacter diversus (C. diversus, 10 h cultivation at 37° C.), the “MIC (μg/mL) C. diversus” value came out at 25 µg/mL. For the same substance, the “MIC (μg/mL) M. catarrhalis” value with Moraxella catarrhalis (M. catarrhalis, 10 h cultivation at 37° C.) is 50 µg/mL. For the same substance, the “MIC (μg/mL) P. mirabilis” value against Proteus mirabilis (P. mirabilis, 10 h cultivation at 37° C.) came out at 12.5 µg/mL. The “MIC (μg/mL) P. vulgaris” value in the experiment on Proteus vulgaris (P. vulgaris, 10 h cultivation at 37° C.) turned out to be 50 µg/mL. In addition, in the experiment with Serratia marcescens (S. marcescens, 10 h cultivation at 37° C.), the “MIC (μg/mL) S. marcescens” value turned out to be 12.5 µg/mL.
